Experimental data published in patent US9932309B2, “2-oxo-3,4-dihydropyridine-5-carboxylates and their use” (UNIVERSITE DE LILLE 2 DROIT ET SANTE, priority 2014, dated 2018).

What was measured:
mTGR5 = target: T1, mTGR5 (Mus musculus, UniProt Q80SS6); experiment: TGR5/CRE Luciferase Assay (mTGR5); format: cell-based; conditions: for EC50: HEK 293 cells co-transfected with pCMV AC6-TGR5m and pCRE TA-Luciferase, overnight incubation; for mTGR5 % trans: percentage of the 10 μM LCA value, HEK 293 cells transfected with mTGR5
T1 construct: expressed in transfected cells; host or cells: HEK293 cells, transiently co-transfected with the pCRE TA-Luciferase reporter
T1 sequence (Q80SS6 1-329): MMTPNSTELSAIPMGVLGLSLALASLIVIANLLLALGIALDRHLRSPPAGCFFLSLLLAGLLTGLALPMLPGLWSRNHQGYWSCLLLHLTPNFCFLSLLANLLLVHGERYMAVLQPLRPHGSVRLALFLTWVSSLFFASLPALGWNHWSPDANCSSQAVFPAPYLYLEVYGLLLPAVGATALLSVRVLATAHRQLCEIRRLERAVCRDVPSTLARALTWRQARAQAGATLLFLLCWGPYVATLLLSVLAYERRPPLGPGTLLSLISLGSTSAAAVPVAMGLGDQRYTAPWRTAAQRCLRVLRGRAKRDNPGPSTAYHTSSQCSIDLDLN
Procedure: (§1) TGR5/CRE Luciferase Assay
(§2) In the following Tables TGR5 activation by compounds of the invention and subsequent increase in intracellular cAMP were evaluated using a luciferase reporter gene assay. Human embryonic kidney (HEK) 293 cells were transiently co-transfected with pCMV tag4b-TGR5 h (to follow hTGR5 activation) or pCMV AC6-TGR5m (to follow mTGR5 activation) expression plasmids and the pCRE TA-Luciferase reporter plasmid using the JET PEI reagent (Polyplus transfection). Transfected cells were seeded in 96-well plates and incubated overnight with the test compounds at increasing concentrations tested in duplicate. Lithocolic acid (LCA) at 10 μM was used as a positive reference compound. The cAMP-dependent luciferase expression was followed using the BrightGlo reagent according to the manufacturer (Promega) instructions. Luminescence was read with a Mithras plate reader (Berthold) or a Victor3™ V1420 (Perkin Elmer). […] Concentration-response curves were fitted by a nonlinear regression analysis to a 4 parameter logistic equation

hTGR5 = target: T2, hTGR5 (Homo sapiens, UniProt Q8TDU6); experiment: TGR5/CRE Luciferase Assay (hTGR5); format: cell-based; conditions: for EC50: HEK 293 cells co-transfected with pCMV tag4b-TGR5h and pCRE TA-Luciferase, overnight incubation; for hTGR5 % trans: percentage of the 10 μM LCA value, HEK 293 cells transfected with hTGR5
T2 construct: expressed in transfected cells; host or cells: HEK293 cells, transiently co-transfected with the pCRE TA-Luciferase reporter
T2 sequence (Q8TDU6 1-330): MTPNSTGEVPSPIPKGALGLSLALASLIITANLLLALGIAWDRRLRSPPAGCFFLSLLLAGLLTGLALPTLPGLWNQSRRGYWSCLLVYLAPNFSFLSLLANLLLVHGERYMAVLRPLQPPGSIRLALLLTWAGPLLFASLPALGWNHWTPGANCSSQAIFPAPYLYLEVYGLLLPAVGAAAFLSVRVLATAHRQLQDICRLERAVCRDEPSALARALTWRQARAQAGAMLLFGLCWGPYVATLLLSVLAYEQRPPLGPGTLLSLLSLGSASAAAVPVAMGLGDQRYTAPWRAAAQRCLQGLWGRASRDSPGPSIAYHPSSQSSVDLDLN
Procedure: as §1, §2

| EC50 (mTGR5) | mTGR5 % trans (mTGR5) | EC50 (hTGR5) | hTGR5 % trans (hTGR5) | Structure (SMILES) |
| --- | --- | --- | --- | --- |
| 40 nM | 111% | 20 nM | 93% | COCCOc1ccc(COC(=O)C2=C(C)N(C[C@H]3CCCO3)C(=O)C[C@H]2c2ccc(Cl)cc2)cc1 (racemic) [Example 136, 4-(2-methoxyethoxy)phenyl]methyl (4S)-4-(4-chlorophenyl)-6-methyl-2-oxo-1-[[(2R)-tetrahydrofuran-2-yl]methyl]-3,4-dihydropyridine-5-carboxylate and 4-(2-methoxyethoxy)phenyl]methyl (4R)-4-(4-chlorophenyl)-6-methyl-2-oxo-1-[[(2S)-tetrahydrofuran-2-yl]methyl]-3,4-dihydropyridine-5-carboxylate] |
| 930 nM | 40% | 380 nM | 70% | CC1=C(C(=O)OC2CCc3ccccc32)[C@H](c2ccc(Cl)cc2)CC(=O)N1C[C@H]1CCCO1 (mixture of isomers) [Example 137, Indan-1-yl (4S)-4-(4-chlorophenyl)-6-methyl-2-oxo-1-[[(2R)-tetrahydrofuran-2-yl]methyl]-3,4-dihydropyridine-5-carboxylate] |
| 2500 nM | 74% | 1000 nM | 72% | CC1=C(C(=O)OCc2ccccn2)[C@H](c2ccc(Cl)cc2)CC(=O)N1C[C@H]1CCCO1 (racemic) [Example 145, 2-pyridylmethyl (4S)-4-(4-chlorophenyl)-6-methyl-2-oxo-1-[[(2R)-tetrahydrofuran-2-yl]methyl]-3,4-dihydropyridine-5-carboxylate and 2-pyridylmethyl (4R)-4-(4-chlorophenyl)-6-methyl-2-oxo-1-[[(2S)-tetrahydrofuran-2-yl]methyl]-3,4-dihydropyridine-5-carboxylate] |
| 450 nM | 77% | 350 nM | 78% | CC1=C(C(=O)OCc2cccnc2)[C@H](c2ccc(Cl)cc2)CC(=O)N1C[C@H]1CCCO1 (racemic) [Example 146, 3-pyridylmethyl (4S)-4-(4-chlorophenyl)-6-methyl-2-oxo-1-[[(2R)-tetrahydrofuran-2-yl]methyl]-3,4-dihydropyridine-5-carboxylate and 3-pyridylmethyl (4R)-4-(4-chlorophenyl)-6-methyl-2-oxo-1-[[(2S)-tetrahydrofuran-2-yl]methyl]-3,4-dihydropyridine-5-carboxy late] |
| 450 nM | 112% | 190 nM | 77% | COCCOc1ccc(COC(=O)C2=C(C)N(C[C@@H]3CCCO3)C(=O)C[C@H]2c2ccc(Cl)cc2)cc1 (racemic) [Example 147, [4-(2-methoxyethoxy)phenyl]methyl (4S)-4-(4-chlorophenyl)-6-methyl-2-oxo-1-[[(2S)-tetrahydrofuran-2-yl]methyl]-3,4-dihydropyridine-5-carboxylate and [4-(2-methoxyethoxy)phenyl]methyl (4R)-4-(4-chlorophenyl)-6-methyl-2-oxo-1-[[(2R)-tetrahydrofuran-2-yl]methyl]-3,4-dihydropyridine-5-carboxylate] |
| 70 nM | 89% | 20 nM | 91% | COc1ccccc1COC(=O)C1=C(C)N(C[C@H]2CCCO2)C(=O)C[C@H]1c1ccc(Cl)c(Cl)c1 (racemic) [Example 149, (2-methoxyphenyl)methyl (4S)-4-(3,4-dichlorophenyl)-6-methyl-2-oxo-1-[[(2R)-tetrahydrofuran-2-yl]methyl]-3,4-dihydropyridine-5-carboxylate and (2-methoxyphenyl)methyl (4R)-4-(3,4-dichlorophenyl)-6-methyl-2-oxo-1-[[(2S)-tetrahydrofuran-2-yl]methyl]-3,4-dihydropyridine-5-carboxylate] |
| 100 nM | 99% | 25 nM | 110% | COc1ccccc1COC(=O)C1=C(C)N(C[C@H]2CCCO2)C(=O)C[C@H]1c1ccc(C(F)(F)F)nc1 (racemic) [Example 150, (2-Methoxyphenyl)methyl (4S)-6-methyl-2-oxo-1-[[(2R)-tetrahydrofuran-2-yl]methyl]-4-[6-(trifluoromethyl)-3-pyridyl]-3,4-dihydropyridine-5-carboxylate and (2-methoxyphenyl)methyl (4R)-6-methyl-2-oxo-1-[[(2S)-tetrahydrofuran-2-yl]methyl]-4-[6-(trifluoromethyl)-3-pyridyl]-3,4-dihydropyridine-5-carboxylate] |
| 12500 nM | 44% | 2200 nM | 87% | COc1ccccc1COC(=O)C1=C(C)N(C[C@H]2CCCO2)C(=O)C[C@H]1c1cccnc1Cl (racemic) [Example 151, (2-Methoxyphenyl)methyl (4R)-4-(2-chloro-3-pyridyl)-6-methyl-2-oxo-1-[[(2R)-tetrahydrofuran-2-yl]methyl]-3,4-dihydropyridine-5-carboxylate and (2-methoxyphenyl)methyl (4S)-4-(2-chloro-3-pyridyl)-6-methyl-2-oxo-1-[[(2S)-tetrahydrofuran-2-yl]methyl]-3,4-dihydropyridine-5-carboxylate] |
| 48 nM | 66% | 30 nM | 106% | COc1ccccc1COC(=O)C1=C(C)N(C[C@H]2CCCO2)C(=O)C[C@H]1c1ccc2nsnc2c1 (racemic) [Example 152, (2-Methoxyphenyl)methyl (4S)-4-(2,1,3-benzothiadiazol-5-yl)-6-methyl-2-oxo-1-[[(2R)-tetrahydrofuran-2-yl]methyl]-3,4-dihydropyridine-5-carboxylate and (2-methoxyphenyl)methyl (4R)-4-(2,1,3-benzothiadiazol-5-yl)-6-methyl-2-oxo-1-[[(2S)-tetrahydrofuran-2-yl]methyl]-3,4-dihydropyridine-5-carboxylate] |
| 130 nM | 102% | 130 nM | 101% | CC1=C(C(=O)OCc2ccc(OCCS(=O)(=O)O)cc2)[C@@H](c2ccc(Cl)nc2)CC(=O)N1C[C@@H]1CCCO1.N (racemic) [Example 153, Ammonium,2-[4-[[(4S)-4-(6-chloro-3-pyridyl)-6-methyl-2-oxo-1-[[(2R)-tetrahydrofuran-2-yl]methyl]-3,4-dihydropyridine-5-carbonyl]oxymethyl]phenoxy]ethanesulfonate and ammonium,2-[4-[[(4R)-4-(6-chloro-3-pyridyl)-6-methyl-2-oxo-1-[[(2S)-tetrahydrofuran-2-yl]methyl]-3,4-dihydropyridine-5-carbonyl]oxymethyl]phenoxy]ethanesulfonate] |
| 700 nM | 82% |  |  | COCCN1C(=O)CC(c2ccc(Cl)cc2)C(C(=O)OCc2cccc(F)c2)=C1C (stereo not shown) [Example 85, (3-fluorophenyl)methyl 4-(4-chlorophenyl)-1-(2-methoxyethyl)-6-methyl-2-oxo-3,4-dihydropyridine-5-carboxylate] |
| 300 nM |  |  |  | COCCN1C(=O)CC(c2ccc(Cl)cc2)C(C(=O)OCc2ccc(C(F)(F)F)cc2)=C1C (stereo not shown) [Example 92, [4-(trifluoromethyl)phenyl]methyl 4-(4-chlorophenyl)-1-(2-methoxyethyl)-6-methyl-2-oxo-3,4-dihydropyridine-5-carboxylate] |
| 300 nM |  |  |  | COCCN1C(=O)CC(c2ccc(Cl)cc2)C(C(=O)OCc2cccc(C)c2)=C1C (stereo not shown) [Example 99, m-tolylmethyl 4-(4-chlorophenyl)-1-(2-methoxyethyl)-6-methyl-2-oxo-3,4-dihydropyridine-5-carboxylate] |
| 800 nM | 63% |  |  | COCCN1C(=O)CC(c2ccc(Cl)cc2)C(C(=O)OCc2ccccc2OC(F)(F)F)=C1C (stereo not shown) [Example 105, (2-trifluoromethoxyphenyl)methyl 4-(4-chlorophenyl)-1-(2-methoxyethyl)-6-methyl-2-oxo-3,4-dihydropyridine-5-carboxylate] |
